Results: US20230173086A1, “PEPTIDE CONJUGATES AND THERAPEUTIC AGENTS HAVING IMPROVED PHARMACOLOGICAL AND PHARMACOKINETIC PROPERTIES” (Resolute Bio, Inc., priority 2021, published 2023)

These substances were tested on RBCs. Details: Table 1, D-Ala scanning of 1a.
Protocol: RBC binding ranked by MESF (molecules of equivalent soluble fluorescence), or intensity of fluorescent signal measured when RBCs were incubated with a given concentration of peptide.
High=MESF value>1000 fluorescent units
Medium=MESF Value from 300 to 1000 fluorescent units
Low=MESF Value from 15 to 300 fluorescent units
“H-ala-trp-his-pro-trp-ala-met-met-tyr-lys-Gly-Gly-Gly-lys(Biotin)-NH2 [Peptide 1b]” was tested, and the “Classification of RBC binding properties (MESF)” value (from here on “Classification”) was “Low (MESF Value from 15 to 300 fluorescent units)”. With “H-phe-ala-his-pro-trp-ala-met-met-tyr-lys-Gly-Gly-Gly-lys(Biotin)-NH2 [Peptide 1c]” the “Classification” value was “Does Not Bind (MESF Value below 15 fluorescent units)”. In the case of “H-phe-trp-ala-pro-trp-ala-met-met-tyr-lys-Gly-Gly-Gly-lys(Biotin)-NH2 [Peptide 1d]”, the “Classification” value is reported as “Medium (MESF Value from 300 to 1000 fluorescent units)”. “H-phe-trp-his-ala-trp-ala-met-met-tyr-lys-Gly-Gly-Gly-lys(Biotin)-NH2 [Peptide 1e]” was tested, and the “Classification” value was “High (MESF value>1000 fluorescent units)”. In the case of “H-phe-trp-his-pro-ala-ala-met-met-tyr-lys-Gly-Gly-Gly-lys(Biotin)-NH2 [Peptide 1f]”, the “Classification” value is reported as “Does Not Bind (MESF Value below 15 fluorescent units)”. With “H-phe-trp-his-pro-trp-ala-ala-met-tyr-lys-Gly-Gly-Gly-lys(Biotin)-NH2 [ig]” the “Classification” value was “Does Not Bind (MESF Value below 15 fluorescent units)”. In the case of “H-phe-trp-his-pro-trp-ala-met-ala-tyr-lys-Gly-Gly-Gly-lys(Biotin)-NH2 [Peptide 1h]”, the “Classification” value is reported as “Low (MESF Value from 15 to 300 fluorescent units)”. In the case of “H-phe-trp-his-pro-trp-ala-met-met-ala-lys-Gly-Gly-Gly-lys(Biotin)-NH2 [Peptide 1i]”, the “Classification” value is reported as “Low (MESF Value from 15 to 300 fluorescent units)”. “H-phe-trp-his-pro-trp-ala-met-met-tyr-ala-Gly-Gly-Gly-lys(Biotin)-NH2 [Peptide 1j]” was tested, and the “Classification” value was “High (MESF value>1000 fluorescent units)”. For “H-phe-trp-his-pro-trp-ala-met-met-tyr-lys-Gly-Gly-Gly-lys(Biotin)-NH2 [Peptide 1a]”, the “Classification” value was “High (MESF value>1000 fluorescent units)”.

Same assay, conditions: Table 2, 1a analogs
“Ac-phe-trp-his-pro-trp-ala-met-met-tyr-lys-Gly-Gly-Gly-lys(Biotin)-NH2 [Peptide 2g]” was tested, and the “Classification” value was “Does Not Bind (MESF Value below 15 fluorescent units)”. “H-ala-pro-met-phe-tyr-trp-lys-his-met-trp-Gly-Gly-Gly-lys(Biotin)-NH2 [Peptide 2f]” was tested, and the “Classification” value was “Low (MESF Value from 15 to 300 fluorescent units)”. In the case of “H-phe-trp-his-L-Pro-trp-ala-met-met-tyr-lys-Gly-Gly-Gly-lys(Biotin)-NH2 [Peptide 2l]”, the “Classification” value is reported as “Low (MESF Value from 15 to 300 fluorescent units)”. In the case of “H-phe-trp-his-NMeGly-trp-ala-met-met-tyr-lys-Gly-Gly-Gly-lys(Biotin)-NH2 [Peptide 2k]”, the “Classification” value is reported as “Low (MESF Value from 15 to 300 fluorescent units)”. For “H-phe-trp-his-pro-trp-ala-ala-ala-tyr-lys-Gly-Gly-Gly-lys(Biotin)-NH2 [Peptide 2b]”, the “Classification” value was “High (MESF value>1000 fluorescent units)”. For “H-phe-trp-his-pro-trp-ala-leu-leu-tyr-lys-Gly-Gly-Gly-lys(Biotin)-NH2 [Peptide 2c]”, the “Classification” value was “Does Not Bind (MESF Value below 15 fluorescent units)”. In the case of “H-phe-trp-his-pro-trp-ala-met-met-tyr-lys-Gly-Gly-Gly-(H-phe-trp-his-pro-trp-ala-met-met-tyr-lys-Gly-Gly-Gly)-lys-Gly-Gly-lys(Biotin)-NH2 [Peptide 2d]”, the “Classification” value is reported as “High (MESF value>1000 fluorescent units)”. For “H-phe-trp-his-pro-trp-ala-met-met-tyr-lys-Gly-Gly-Gly-cys(trt)-Gly-lys(Biotin)-NH2 [Peptide 2h]”, the “Classification” value was “Does Not Bind (MESF Value below 15 fluorescent units)”. With “H-phe-trp-his-pro-trp-ala-met-met-tyr-lys-Gly-Gly-Gly-lys(Biotin)-NH2 [Peptide 1a]” the “Classification” value was “High (MESF value>1000 fluorescent units)”. In the case of “H-phe-trp-his-pro-trp-ala-met-met-tyr-lys-Gly-Gly-Gly-lys(C18diacid)-lys(Biotin)-NH2 [Peptide 2e]”, the “Classification” value is reported as “Medium (MESF Value from 300 to 1000 fluorescent units)”. “H-phe-trp-his-pro-trp-ala-nle-nle-tyr-lys-Gly-Gly-Gly-lys(Biotin)-NH2 [Peptide 2a]” was tested, and the “Classification” value was “Medium (MESF Value from 300 to 1000 fluorescent units)”. “H-phe-trp-his-αMepro-trp-ala-met-met-tyr-lys-Gly-Gly-Gly-lys(Biotin)-NH2 [Peptide 2m]” was tested, and the “Classification” value was “Does Not Bind (MESF Value below 15 fluorescent units)”. With “H-phe-trp-ser-pro-trp-ala-met-met-tyr-lys-Gly-Gly-Gly-lys(Biotin)-NH2 [Peptide 2i]” the “Classification” value was “Low (MESF Value from 15 to 300 fluorescent units)”. For “H-phe-trp-tyr-pro-trp-ala-met-met-tyr-lys-Gly-Gly-Gly-lys(Biotin)-NH2 [Peptide 2j]”, the “Classification” value was “Low (MESF Value from 15 to 300 fluorescent units)”.

Same assay, conditions: Table 3, structurally-diverse all-D-peptides
In the case of “H-leu-his-his-pro-trp-pro-tyr-phe-tyr-lys-Gly-Gly-Gly-lys(Biotin)-NH2 [Peptide 3e]”, the “Classification” value is reported as “Low (MESF Value from 15 to 300 fluorescent units)”. For “H-leu-phe-his-pro-trp-pro-ala-phe-pro-lys-Gly-Gly-Gly-lys(Biotin)-NH2 [Peptide 3l]”, the “Classification” value was “High (MESF value>1000 fluorescent units)”. With “H-leu-trp-his-pro-trp-ala-met-pro-glu-lys-Gly-Gly-Gly-lys(Biotin)-NH2 [Peptide 3m]” the “Classification” value was “Low (MESF Value from 15 to 300 fluorescent units)”. With “H-leu-trp-his-pro-tyr-leu-phe-leu-trp-lys-Gly-Gly-Gly-lys(Biotin)-NH2 [Peptide 3f]” the “Classification” value was “Does Not Bind (MESF Value below 15 fluorescent units)”. In the case of “H-leu-trp-ser-pro-val-phe-phe-phe-pro-lys-Gly-Gly-Gly-lys(Biotin)-NH2 [Peptide 3n]”, the “Classification” value is reported as “Does Not Bind (MESF Value below 15 fluorescent units)”. “H-met-phe-his-pro-phe-ala-phe-met-tyr-lys-Gly-Gly-Gly-lys(Biotin)-NH2 [Peptide 3o]” was tested, and the “Classification” value was “Medium (MESF Value from 300 to 1000 fluorescent units)”. For “H-phe-phe-his-pro-phe-ala-trp-phe-his-lys-Gly-Gly-Gly-lys(Biotin)-NH2 [Peptide 3h]”, the “Classification” value was “Low (MESF Value from 15 to 300 fluorescent units)”. For “H-phe-phe-his-pro-trp-ser-trp-thr-ser-lys-Gly-Gly-Gly-lys(Biotin)-NH2 [Peptide 3a]”, the “Classification” value was “High (MESF value>1000 fluorescent units)”. In the case of “H-phe-phe-his-pro-tyr-Gly-leu-phe-val-lys-Gly-Gly-Gly-lys(Biotin)-NH2 [Peptide 3b]”, the “Classification” value is reported as “Medium (MESF Value from 300 to 1000 fluorescent units)”. “H-phe-phe-his-val-pro-val-phe-ser-val-lys-Gly-Gly-Gly-lys(Biotin)-NH2 [Peptide 3i]” was tested, and the “Classification” value was “Medium (MESF Value from 300 to 1000 fluorescent units)”. For “H-phe-trp-his-pro-trp-ala-met-met-tyr-lys-Gly-Gly-Gly-lys(Biotin)-NH2 [Peptide 1a]”, the “Classification” value was “High (MESF value>1000 fluorescent units)”. In the case of “H-phe-trp-his-pro-trp-phe-phe-lys-thr-lys-Gly-Gly-Gly-lys(Biotin)-NH2 [Peptide 3c]”, the “Classification” value is reported as “Low (MESF Value from 15 to 300 fluorescent units)”. With “H-phe-trp-tyr-val-his-thr-thr-Gly-trp-lys-Gly-Gly-Gly-lys(Biotin)-NH2 [Peptide 3j]” the “Classification” value was “Does Not Bind (MESF Value below 15 fluorescent units)”. “H-phe-trp-val-pro-phe-trp-trp-lys-thr-lys-Gly-Gly-Gly-lys(Biotin)-NH2 [Peptide 3d]” was tested, and the “Classification” value was “Low (MESF Value from 15 to 300 fluorescent units)”. For “H-phe-tyr-tyr-pro-trp-pro-val-thr-tyr-lys-Gly-Gly-Gly-lys(Biotin)-NH2 [Peptide 3k]”, the “Classification” value was “Does Not Bind (MESF Value below 15 fluorescent units)”. For “H-pro-his-his-pro-phe-ala-leu-phe-leu-lys-Gly-Gly-Gly-lys(Biotin)-NH2 [Peptide 3q]”, the “Classification” value was “Medium (MESF Value from 300 to 1000 fluorescent units)”. For “H-pro-phe-tyr-thr-tyr-his-trp-tyr-ser-lys-Gly-Gly-Gly-lys(Biotin)-NH2 [Peptide 3p]”, the “Classification” value was “Does Not Bind (MESF Value below 15 fluorescent units)”. For “H-ser-Gly-val-asp-thr-tyr-leu-thr-his-lys-Gly-Gly-Gly-lys(Biotin)-NH2 [Peptide 3r]”, the “Classification” value was “Medium (MESF Value from 300 to 1000 fluorescent units)”. In the case of “H-ser-trp-his-pro-val-trp-Gly-trp-leu-lys-Gly-Gly-Gly-lys(Biotin)-NH2 [Peptide 3g]”, the “Classification” value is reported as “Low (MESF Value from 15 to 300 fluorescent units)”. With “H-trp-tyr-leu-pro-pro-leu-trp-his-ala-lys-Gly-Gly-Gly-lys(Biotin)-NH2 [Peptide 3u]” the “Classification” value was “Does Not Bind (MESF Value below 15 fluorescent units)”. With “H-trp-val-pro-Gly-phe-trp-tyr-his-tyr-lys-Gly-Gly-Gly-lys(Biotin)-NH2 [Peptide 3t]” the “Classification” value was “Low (MESF Value from 15 to 300 fluorescent units)”. In the case of “H-tyr-phe-leu-tyr-leu-pro-tyr-his-thr-lys-Gly-Gly-Gly-lys(Biotin)-NH2 [Peptide 3v]”, the “Classification” value is reported as “Low (MESF Value from 15 to 300 fluorescent units)”. With “H-tyr-trp-val-pro-met-trp-val-his-val-lys-Gly-Gly-Gly-lys(Biotin)-NH2 [Peptide 3w]” the “Classification” value was “Low (MESF Value from 15 to 300 fluorescent units)”. For “H-val-phe-his-pro-phe-trp-Gly-tyr-phe-lys-Gly-Gly-Gly-lys(Biotin)-NH2 [Peptide 3s]”, the “Classification” value was “Does Not Bind (MESF Value below 15 fluorescent units)”.
